{"source": "the NIST ThermoML archive (doi:10.1021/je7000733)", "key": {"[1]": {"test": "refractive index (Na D-line) (dimensionless)", "conditions": "293.1 K; 101.33 kPa; Liquid; Standard Abbe refractometry"}, "[2]": {"conditions": "Liquid; for mass density: 293.1 K, 101.33 kPa, Vibrating tube method; for Normal boiling temperature: Fisher boiling point apparatus"}}, "note": "± gives the expanded uncertainty stated by the source.", "data": [{"smiles": "CCOC(=O)CCCCC(=O)OCC", "note": "[diethyl hexanedioate]", "values": [{"measurement": "refractive index", "setting": "[1]", "value": "1.42725 ± 0.0007"}, {"measurement": "mass density", "setting": "[2]", "value": "1007.63 ± 0.24", "unit": "kg/m3"}, {"measurement": "Normal boiling temperature", "setting": "[2]", "value": "245.20 ± 0.2", "unit": "°C"}]}, {"smiles": "CC(=O)O", "note": "[acetic acid]", "values": [{"measurement": "refractive index", "setting": "[1]", "value": "1.37201 ± 0.0007"}, {"measurement": "mass density", "setting": "[2]", "value": "1044.3 ± 0.27", "unit": "kg/m3"}, {"measurement": "Normal boiling temperature", "setting": "[2]", "value": "118.00 ± 0.2", "unit": "°C"}]}, {"smiles": "CCOC(=O)CCC(=O)OCC", "note": "[diethyl butanedioate]", "values": [{"measurement": "refractive index", "setting": "[1]", "value": "1.42014 ± 0.0007"}, {"measurement": "mass density", "setting": "[2]", "value": "1040.22 ± 0.27", "unit": "kg/m3"}, {"measurement": "Normal boiling temperature", "setting": "[2]", "value": "217.70 ± 0.2", "unit": "°C"}]}, {"smiles": "CCOC(=O)CCCC(=O)OCC", "note": "[diethyl glutarate]", "values": [{"measurement": "refractive index", "setting": "[1]", "value": "1.42414 ± 0.00078"}, {"measurement": "mass density", "setting": "[2]", "value": "1022.04 ± 0.88", "unit": "kg/m3"}, {"measurement": "Normal boiling temperature", "setting": "[2]", "value": "236.50 ± 0.2", "unit": "°C"}]}]}
